Measured values as given in patent US20250144067A1, “PERSONALIZED STARVATION THERAPY FOR CANCER” (Faeth Therapeutics, Inc., priority 2021, published 2025).
Where a name gives a salt, the structure may show the parent alone.

What was measured:
[1] = test system: NCI-H292 lung cancer cells; experiment: FDA drug screening, complete media vs cholesterol-free media without statin (TABLE 1); assay type: cell-based, human
[2] = test system: NCI-H292 lung cancer cells; experiment: FDA drug screening, complete media vs cholesterol-free media with simvastatin (TABLE 2); assay type: cell-based, human; details: for Cholesterol-free media + simvastatin (0.04 μM) / Complete Media: NCI-H292 cells
[3] = Complete minus Cholesterol-free, >0 enhanced anti-cancer activity, about 0 neutral, <0 antagonist
[4] = NCI-H292 cells, cholesterol-free media without statin, FDA drug library screen
[5] = NCI-H292 cells, complete media, FDA drug library screen
[6] = FDA drug library screen, cholesterol-free media with simvastatin 0.04 μM
[7] = FDA drug library screen, complete media
[8] = complete media minus cholesterol-free media + simvastatin, >0 enhanced anti-cancer activity, about 0 neutral, <0 antagonist
[9] = NCI-H292 cells in cholesterol-free media without statin
[10] = NCI-H292 cells in complete media
[11] = NCI-H292 cells, cholesterol-free media without statin
[12] = complete vs cholesterol-free media, greater than 0 enhanced anti-cancer activity, about 0 neutral, below 0 antagonists
[13] = cholesterol-free media with simvastatin 0.04 μM, FDA drug library screen (TABLE 2)
[14] = complete media, FDA drug library screen (TABLE 2)
[15] = complete media minus cholesterol-free media + simvastatin (0.04 μM), >0 enhanced anti-cancer activity, about 0 neutral, <0 antagonist
[16] = complete media vs cholesterol-free media + simvastatin (0.04 μM), >0 enhanced anti-cancer activity, about 0 neutral, <0 antagonist
[17] = cholesterol-free media with simvastatin 0.04 μM, cell growth value in FDA drug screen
[18] = complete media, cell growth value in FDA drug screen
[19] = drug in cholesterol-free media with simvastatin 0.04 μM
[20] = complete vs cholesterol-free media, >0 enhanced anti-cancer activity, about 0 neutral, <0 antagonist

| Compound | Difference [1, 3] | Cholesterol-free [1, 4] | Complete [1, 5] | Cholesterol-free media + simvastatin (0.04 μM) [2, 6] | Complete Media [2, 7] | Difference [2, 8] | Cholesterol-free [1, 11] | Complete ([1]; NCI-H292 cells, complete media) | Difference [2, 16] | also measured |
| --- | --- | --- | --- | --- | --- | --- | --- | --- | --- | --- |
| CC(=O)NS(=O)(=O)c1ccc(N)cc1 [Sulfacetamide (Sodium)] | 0.04 | 0.8669 | 0.9047 | 1.134 | 1.384 | 0.25 |  |  |  |  |
| CC(CCc1ccccc1)NC(C)C(O)c1ccc(O)cc1 (centres unmarked) [Nylidrin (hydrochloride)] |  |  |  | 0.6926 | 0.8576 | 0.17 |  |  |  | Difference ([1]; Complete minus Cholesterol-free, greater than 0 enhanced anti-cancer activity, about 0 neutral, below 0 antagonists): −0.53; Cholesterol-free [1, 9]: 1.455; Complete [1, 10]: 0.9273 |
| CN(C)[C@@H]1C(O)=C(C(N)=O)C(=O)[C@@]2(O)C(O)=C3C(=O)c4c(O)cccc4[C@@](C)(O)[C@H]3C[C@@H]12 [Tetracycline (hydrochloride)] |  |  |  |  |  |  | 1.387 | 0.93 |  | Difference [1, 12]: −0.46; Cholesterol-free media + simvastatin (0.04 μM) [2, 13]: 0.7005; Complete Media [2, 14]: 0.7002; Difference [2, 15]: 0.00 |
| Cc1[nH]cnc1CN1CCc2c(c3ccccc3n2C)C1=O [Alosetron (Hydrochloride)] | 0.05 | 1.398 | 1.45 | 0.9241 | 0.826 |  |  |  | −0.10 |  |
| O=C(O)c1cc(=O)[nH]c(=O)[nH]1 [Orotic acid] | −0.23 |  |  |  |  | 0.07 | 1.001 | 0.7657 |  | Cholesterol-free media + simvastatin (0.04 μM) [2, 17]: 1.191; Complete Media [2, 18]: 1.261 |
| Thiamine nitrate | −0.26 |  |  |  |  |  | 0.9749 | 0.7175 | −0.20 | Cholesterol-free media + simvastatin (0.04 μM) [2, 19]: 0.9067; Complete Media ([2]; drug in complete media): 0.7018 |
| Ifenprodil (tartrate) | 0.02 | 0.8921 | 0.9115 | 0.4918 |  | 0.57 |  |  |  |  |
| CCCN[C@H]1CCc2nc(N)sc2C1 [Pramipexole (dihydrochloride hydrate)] | 0.05 | 0.8255 | 0.873 | 1.173 | 1.35 | 0.18 |  |  |  |  |
| C=CCNc1nc(NCC=C)nc(N2CCN(C(c3ccc(F)cc3)c3ccc(F)cc3)CC2)n1 [Almitrine mesylate] |  | 0.7257 | 0.8177 | 0.7616 | 0.6708 |  |  |  | −0.09 | Difference [1, 20]: 0.09 |
| Dabigatran etexilate (mesylate) | −0.23 |  |  | 1.092 | 0.9893 |  | 1.215 | 0.9831 | −0.10 |  |
| CC(=O)OCC(=O)NCCCOc1cccc(CN2CCCCC2)c1.Cl [Roxatidine (Acetate Hydrochloride)] |  |  |  | 1.117 | 1.004 |  | 1.511 | 1.141 | −0.11 | Difference [1, 12]: −0.37 |
| CC12CCC(CC1=O)C2(C)C (stereo not drawn) [(+)-Camphor] |  | 0.9458 | 1.19 |  |  | 0.13 |  |  |  | Difference [1, 20]: 0.24; Cholesterol-free media + simvastatin (0.04 μM) [2, 17]: 0.9198; Complete Media [2, 18]: 1.05 |
| CC1=C2[C@H]3OC(=O)[C@@H](C)[C@@H]3CC[C@@]2(C)C=CC1=O [Santonin] |  |  |  |  |  |  |  |  |  | Difference ([1]; Complete minus Cholesterol-free, […]): −0.53; Cholesterol-free [1, 9]: 1.389; Complete [1, 10]: 0.8572; Cholesterol-free media + simvastatin (0.04 μM) [2, 19]: 1.229; Complete Media ([2]; drug in complete media): 1.004; Difference ([2]; complete media vs cholesterol-free media + simvastatin (0.04 μM), […]): −0.23 |
| CC(C)=CCOc1ccc(/C=C/C(=O)c2ccc(OCC=C(C)C)cc2OCC(=O)O)cc1 [Sofalcone] |  |  |  |  |  |  |  |  |  | Difference ([1]; Complete minus Cholesterol-free, greater than 0 enhanced anti-cancer activity, about 0 neutral, below 0 antagonist): −0.07; Cholesterol-free ([1]; NCI-H292 cells, FDA drug library screen, cholesterol-free media without statin): 0.9203; Complete ([1]; NCI-H292 cells, FDA drug library screen, complete media): 0.8453; Cholesterol-free media + simvastatin (0.04 μM) [2, 13]: 0.8486; Complete Media [2, 14]: 0.7952; Difference [2, 15]: −0.05 |
